Earlier results on one compound are cited in patent US20210361602A1, “DOSING METHODS FOR TREATING INFLAMMATORY BOWEL CONDITIONS” (priority 2020, published 2021).

Structures are written as SMILES.

For series [1] the following is noted: enema by prior methods, two patients; Campieri et al. FIG. 4.
For series [2] the following is noted: orally administered; De Vos et al.

Consider `Nc1ccc(O)c(C(=O)O)c1` [5-ASA, 5-aminosalicylic acid], for which, in series [1], the “systemic (plasma) levels of 5-ASA after bowel movement” value is on record as “dramatically lower”. Also, in series [2], the “levels of 5-ASA in the colon after laxative or colonic lavage” value is “decreased”.
